Results taken from patent US4024277A, “Phosphoro-aminosulfenyl derivatives of benzofuran carbamates” (priority 1975, dated 1977).

Columns and labels:
[1] = test system: Mexican bean beetle; test: Seven-day residual insecticidal activity, Mexican bean beetle; assay type: in vivo, Epilachna varivestis Mulsant; conditions: Epilachna varivestis, 48-hour exposure, read-out: % Kill, Mexican Bean Beetle
Source text: (§1) b. Seven-Day Residual Insecticidal Activity
(§2) In this test, a candidate insecticide, in solution, is applied to uninfested plants or containers by dipping or spraying. A seven-day holding period is necessary before infestation. A 48-hour exposure period is observed before evaluation of the tests. The insect species used in this type of test are the same as those listed under initial activity.

[2] = test system: confused flour beetle; test: Seven-day residual insecticidal activity, confused flour beetle; assay type: in vivo, Tribolium confusum Jacquelin duVal; conditions: Tribolium confusum, 48-hour exposure, read-out: % Kill, Confused Flour Beetle
Source text: as §1, §2

[3] = test system: southern armyworm; test: Seven-day residual insecticidal activity, southern armyworm; assay type: in vivo, Spodoptera eridania (Cramer); conditions: Spodoptera eridania, 48-hour exposure, read-out: % Kill, Southern Armyworm
Source text: as §1, §2

[4] = test system: large milkweed bug; test: Initial insecticidal activity, milkweed bug; assay type: in vivo, Oncopeltus fasciatus (Dallas); conditions: Oncopeltus fasciatus, 48-hour exposure, read-out: % Kill, Milkweed Bug
Source text: (§3) a. Initial Insecticidal Activity
(§4) In this test, a candidate insecticide, in solution, is applied to either infested or uninfested plants or containers by spraying or dipping. (The preferred test procedure varies with insect species. The dipping method is better than the spraying method, and vice versa, for certain species of insects. Also some species are better adapted to the test by infesting after the chemical treatment rather than before.) Once the tests have been established, a 48-hour exposure period is observed before reading the tests. Insect species included in these tests are Mexican bean beetle (Epilachna varivestis Mulsant), pea aphid [Acyrthosiphon pisum (Harris)], southern armyworm [Spodoptera eridania (Cramer)], twospotted spider mite (Tetranychus urticae Koch), large milkweed bug [Oncopeltus fasciatus (Dallas)], plum curculio [Conotrachelus nenuphar (Herbst)], confused flour beetle (Tribolium confusum Jacquelin duVal) and granary weevil [Sitophilus granarius (Linnaeus)]. Test results are set forth in Table I. A control sample, comprising the solution without the candidate insecticide, is also included.

[5] = test system: large milkweed bug; test: Seven-day residual insecticidal activity, milkweed bug; assay type: in vivo, Oncopeltus fasciatus (Dallas); conditions: Oncopeltus fasciatus, 48-hour exposure, read-out: % Kill, Milkweed Bug
Source text: as §1, §2

[6] = test system: twospotted spider mite; test: Systemic insecticidal activity (soil/water), twospotted spider mite; assay type: in vivo, Tetranychus urticae Koch; conditions: Tetranychus urticae, 48-hour exposure, read-out: % Kill, Twospotted Spider Mite
Method: (§5) c. Systemic Insecticidal Acitivity (Soil/Water)
(§6) In this test, a candidate insecticide, in solution, is added to the soil of either uninfested pinto bean seedlings (Phaseolus vulgaris) or uninfested broad bean seedlings (Vicia faba var. Windsor). The plant species used depend on the insect species in the test. Usually, a 72-hour translocation period before infestation is required, followed by a 48-hour exposure period, before evaluation of the tests. The insect species used in the systemic tests are Mexican bean beetle, southern armyworm, pea aphid, and twospotted spider mite.

[7] = test system: pea aphid; test: Initial insecticidal activity, pea aphid; assay type: in vivo, Acyrthosiphon pisum (Harris); conditions: Acyrthosiphon pisum, 48-hour exposure, read-out: % Kill, Pea Aphid
Source text: as §3, §4

[8] = test system: southern armyworm; test: Systemic insecticidal activity (soil/water), southern armyworm; assay type: in vivo, Spodoptera eridania (Cramer); conditions: Spodoptera eridania, 48-hour exposure, read-out: % Kill, Southern Armyworm
Method: as §5, §6

[9] = test system: Mexican bean beetle; test: Initial insecticidal activity, Mexican bean beetle; assay type: in vivo, Epilachna varivestis Mulsant; conditions: Epilachna varivestis, 48-hour exposure, read-out: % Kill, Mexican Bean Beetle
Source text: as §3, §4

[10] = test system: granary weevil; test: Initial insecticidal activity, granary weevil; assay type: in vivo, Sitophilus granarius (Linnaeus); conditions: Sitophilus granarius, 48-hour exposure, read-out: % Kill, Granary Weevil
Source text: as §3, §4

[11] = Mammalian toxicity, 14-day LD50 in rats; conditions: rat, in vivo, Wistar derived albino rats, method of Miller and Tainter
Source text: The compounds of this invention are characterized by advantageous mammalian toxicity values when compared with values for related compounds. This is shown by comparative values obtained with Wistar derived albino rats in 14-day tests. The animals were fed, housed and watered in accordance with standard laboratory procedures. The 14-day LD50 determination was estimated in accord with the method of Miller and Tainter (Experimental Biology and Medicine, 57, pp. 261-264, 1944).

Row | Structure (SMILES) | mortality at 39 ppm [1] [%] | mortality at 156 ppm [1] [%] | mortality at 1250 ppm [1] [%] | mortality at 39 ppm [2] [%] | mortality at 156 ppm [2] [%] | mortality at 1250 ppm [2] [%] | mortality at 39 ppm [3] [%] | mortality at 156 ppm [3] [%] | mortality at 1250 ppm [3] [%] | mortality at 39 ppm [4] [%] | mortality at 156 ppm [4] [%] | mortality at 1250 ppm [4] [%] | mortality at 39 ppm [5] [%] | mortality at 156 ppm [5] [%] | mortality at 1250 ppm [5] [%] | mortality at 39 ppm [6] [%] | mortality at 156 ppm [6] [%] | mortality at 39 ppm [7] [%] | mortality at 156 ppm [7] [%] | mortality at 1250 ppm [7] [%] | other results
1 | CCCOP(=O)(OCCC)N(CCC)SN(C)C(=O)Oc1cccc2c1OC(C)(C)C2 [3(c)] | 28 | 92 | 100 | 0 | 0 | 78 | 0 | 0 | 0 | 85 | 100 | 100 | 5 | 90 | 100 | < 1 | 5 | 31 | 100 | 100 | mortality at 10 ppm [6]: < 1%; mortality at 10 ppm [8]: 0%; mortality at 39 ppm [8]: 0%; mortality at 156 ppm [8]: 95%; mortality at 39 ppm [9]: 100%; mortality at 156 ppm [9]: 100%; mortality at 1250 ppm [9]: 100%; mortality at 39 ppm [10]: 70%; mortality at 156 ppm [10]: 90%; mortality at 1250 ppm [10]: 100%
2 | CC(C)OP(=O)(OC(C)C)N(C)SN(C)C(=O)Oc1cccc2c1OC(C)(C)C2 [6(c), 2,3-Dihydro-2,2-dimethyl-7-benzofuranyl [(N-diisopropoxyphosphinyl) (N-methyl)aminosulfenyl][methyl]carbamate] | 6 | 38 | 100 | 0 | 0 | 0 | 0 | 0 | 7 | 95 | 100 | 100 | 5 | 25 | 100 | 4 | 19 | 28 | 60 | 100 | mortality at 39 ppm [8]: 28%; mortality at 156 ppm [8]: 100%; mortality at 39 ppm [9]: 100%; mortality at 156 ppm [9]: 94%; mortality at 1250 ppm [9]: 100%
3 | CCN(SN(C)C(=O)Oc1cccc2c1OC(C)(C)C2)P(=O)(OC)OC [5(c), 2,3-dihydro-2,2-dimethyl-7-benzofuranyl [(N-dimethoxyphosphinyl) (N-ethyl)aminosulfenyl][methyl]carbamate] | 6 | 70 | 100 | 0 | 0 | 0 | 0 | 0 | 61 | 100 | 100 | 100 | 0 | 100 | 100 | 7 | 24 | 0 | 100 | 100 | mortality at 39 ppm [8]: 60%; mortality at 156 ppm [8]: 100%; mortality at 39 ppm [9]: 78%; mortality at 156 ppm [9]: 100%; mortality at 1250 ppm [9]: 100%
4 | CCCOP(=O)(OCCC)N(C)SN(C)C(=O)Oc1cccc2c1OC(C)(C)C2 [2(d), 2,3-dihydro-2,2-dimethyl-7-benzofuranyl [(N-di-n-propoxyphosphinyl) (N-methyl)aminosulfenyl][methyl]carbamate] | 50 | 76 | 100 | 0 | 2 | 38 | 0 | 0 | 60 | 100 | 100 | 100 | 56 | 100 | 100 | 2 | 18 | 86 | 100 | 100 | mortality at 10 ppm [6]: 0%; LD50 at 336 h [11]: 152 mg/kg; mortality at 10 ppm [8]: 0%; mortality at 39 ppm [8]: 94%; mortality at 156 ppm [8]: 100%; mortality at 39 ppm [9]: 100%; mortality at 156 ppm [9]: 100%; mortality at 1250 ppm [9]: 100%; mortality at 39 ppm [10]: 88%; mortality at 156 ppm [10]: 100%; mortality at 1250 ppm [10]: 100%
5 | CCOP(=O)(OCC)N(CC)SN(C)C(=O)Oc1cccc2c1OC(C)(C)C2 [8(c), 2,3-Dihydro-2,2-dimethyl-7-benzofuranyl [(N-diethoxyphosphinyl) (N-ethyl)aminosulfenyl][methyl]carbamate] | 12 | 93 | 100 | 0 | 0 | 12 | 0 | 0 | 43 | 100 | 100 | 100 | 95 | 100 | 100 | 4 | 13 | 0 | 83 | 100 | mortality at 39 ppm [8]: 20%; mortality at 156 ppm [8]: 57%; mortality at 39 ppm [9]: 100%; mortality at 156 ppm [9]: 100%; mortality at 1250 ppm [9]: 100%
6 | CCCN(SN(C)C(=O)Oc1cccc2c1OC(C)(C)C2)P(=O)(Oc1ccccc1)Oc1ccccc1 [7(c)] | 20 | 89 | 100 | 0 | 0 | 0 | 0 | 0 | 0 | 5 | 70 | 95 | 26 | 21 | 60 | 4 | 1 | 11 | 0 | 0 | mortality at 39 ppm [8]: 0%; mortality at 156 ppm [8]: 0%; mortality at 39 ppm [9]: 95%; mortality at 156 ppm [9]: 94%; mortality at 1250 ppm [9]: 100%
